In brackets after ≈: the same amount, converted by molar mass.
Experiments:
Puccinia recondita [1] = experiment: Efficacy test against wheat brown rust, 1 mg/L (Experimental Example 10); format: in vivo; details: 1 g/ha (1 mg/L sprayed at 1,000 L/ha)
Septoria tritici [2] = experiment: Microplate test of biocidal effect on wheat Septoria blotch (Experimental Example 4); format: cell-based; details: Zymoseptoria tritici, 240 h; % mycelium growth inhibition, absorbance 550 nm, 20 degrees C. for about 10 days; read-out: activity level (EC80)
Procedure: A spore suspension of wheat Septoria blotch (Septoria tritici) (spore concentration: 1×10^6 cells/ml) was prepared, and subjected to 100-fold dilution with a PD medium. A flat 96-well microplate was provided and 1 microliter of the test compound solution formed by dissolution in dimethyl sulfoxide (DMSO) at a concentration 100 times the test concentration was dispensed to the microplate, and then 100 microliter of the medium containing the spore was added and stirred thoroughly. […] R=100×(dc−dt)/dc: R: % mycelium growth inhibition dc: Absorbance of non-treatment zone dt: Absorbance of treatment zone

Septoria tritici [3] = experiment: Assay for fungicidal effect on Septoria tritici, plate medium 1.25 mg/L (Experimental Example 9); format: cell-based; details: Zymoseptoria tritici, read-out: growth inhibition grade
Procedure: Each inventive compound was dissolved in 2 ml of dimethyl sulfoxide. 0.6 ml of this solution was added to 60 nil of a PDA medium (potato dextrose agar medium) at about 60 degrees C., which was mixed thoroughly in a 100-ml conical flask, and poured into a dish, where it was solidified, thereby obtaining a plate medium containing the inventive compound at 50 mg/L and 5 mg/L. On the other hand, a subject microorganism previously cultured on a plate medium was cut out using a cork borer whose diameter was 4 mm, and inoculated to the test compound-containing plate medium described above. […] The growth degree of the microorganism on the test compound-containing plate medium thus observed was compared with the growth degree of the microorganism in the untreated group, and % mycelial growth inhibition was calculated by the following equation. R=100(dc−dt)/dc wherein R=% mycelial extension inhibition, dc=flora diameter in untreated plate, dt=flora diameter in treated plate. The results obtained as described above were evaluated as one of the 5 grades according to the following criteria. […] In this Experimental Example, the fungicidal effects of the inventive compounds on Septoria tritici were examined by the methods described in the Experimental Example 5. In this Experimental Example, the inventive compounds were diluted at 1.25 mg/L.

Puccinia recondita [4] = experiment: Efficacy test against wheat brown rust, 2 mg/L (Experimental Example 8); format: in vivo; details: sprayed at 1,000 L/ha, concentration printed 0.02 mg/L, 9 to 14 days after inoculation
Procedure: Onto a wheat plant (variety: […] The sprayed leaves were air-dried, and inoculated with spore suspension of Puccinia recondita (adjusted at 200 spores/vision, […] was added at 60 ppm) by spraying, and kept at 25 degrees C. and a high humidity for 48 hours. Thereafter, the plant was kept in a greenhouse. Nine to 14 days after inoculation, the wheat brown rust lesion degree was investigated, and the protective value was calculated by the following equation. Protective value (%)=(1-lesion degree in sprayed plot/lesion degree in unsprayed plot)×100

Septoria tritici [5] = experiment: Assay for fungicidal effect on Septoria tritici, plate medium 0.02 mg/L (Experimental Example 7); format: cell-based
From the text: In this Experimental Example, the fungicidal effects of the inventive compounds on a phytopathogenic fungi, Septoria tritici were examined and compared to the Comparative Compound (3) described in Patent Literature 1 (JPA01-93574) by the methods described below. […] The subject microorganism previously cultured on a plate medium was cut out using a cork borer whose diameter was 4 mm, and inoculated to the test compound-containing plate medium described above. […] The growth degree of the microorganism on the test compound-containing plate medium thus observed was compared with the growth degree of the microorganism in the untreated group, and % mycelial growth inhibition was calculated by the following equation. R=100(dc−dt)/dc wherein R=% mycelial extension inhibition, dc=flora diameter in untreated plate, dt=flora diameter in treated plate. The results obtained as described above were evaluated as one of the 5 grades according to the following criteria. <Growth Inhibition Grade> […]

| SMILES | lesion degree (Puccinia recondita [1]) | EC80 (Septoria tritici [2]) [µg/mL] | inhibition at 1.25 µg/mL (Septoria tritici [3]) [%] | degree (wheat brown rust lesion degree) (Puccinia recondita [4]) | grade (growth inhibition grade) (Septoria tritici [5]) |
| --- | --- | --- | --- | --- | --- |
| CC1(C)CC[C@H](Cc2ccc(Cl)cc2)[C@@]1(O)Cn1cncn1 (racemic) [comparative compound (I), (1RS,5SR)-5-(4-chlorobenzyl)-2,2-dimethyl-1-(1H-1,2,4-triazol-1-ylmethyl)cyclopentanol, reference compound] | 3 (10% or higher and less than 30%) | 0.4 (≈ 1.25 µM) | 40 to 60 | – | – |
| CC1(C)CC[C@@H](Cc2ccc(F)cc2)[C@]1(O)Cn1cncn1 (racemic) [Compound (3)] | – | – | – | 3 (10% or higher and less than 30%) | 2 (% Mycerial growth inhibition of less than 40 to 20% or higher) |

Source: US9145351B2, “Azole derivatives, methods for producing the same, intermediate thereof, agro-horticultural agents” (KUREHA CORPORATION, priority 2009, dated 2015)
